Test results from US5585492A, “LTA4 Hydrolase inhibitors” (priority 1994, dated 1996).
Like-named read-outs stand apart in the source and are kept apart here.

Tests used:
[1] = molecular target: T1, recombinant human LTA4 hydrolase (Homo sapiens, UniProt P09960); test: Recombinant Human LTA4 Hydrolase Assay for LTA4 Hydrolase Inhibitor Activity (LTB4 by enzyme-linked immunoassay); format: biochemical; details: read-out: Recombinant Human LTA4 Hydrolase Assay IC50 LTA4H
T1 construct: made in house; host or cells: Spodoptera frugiperda Sf-9 cells, baculovirus (AcNPV) expression vector
T1 sequence (P09960 1-611): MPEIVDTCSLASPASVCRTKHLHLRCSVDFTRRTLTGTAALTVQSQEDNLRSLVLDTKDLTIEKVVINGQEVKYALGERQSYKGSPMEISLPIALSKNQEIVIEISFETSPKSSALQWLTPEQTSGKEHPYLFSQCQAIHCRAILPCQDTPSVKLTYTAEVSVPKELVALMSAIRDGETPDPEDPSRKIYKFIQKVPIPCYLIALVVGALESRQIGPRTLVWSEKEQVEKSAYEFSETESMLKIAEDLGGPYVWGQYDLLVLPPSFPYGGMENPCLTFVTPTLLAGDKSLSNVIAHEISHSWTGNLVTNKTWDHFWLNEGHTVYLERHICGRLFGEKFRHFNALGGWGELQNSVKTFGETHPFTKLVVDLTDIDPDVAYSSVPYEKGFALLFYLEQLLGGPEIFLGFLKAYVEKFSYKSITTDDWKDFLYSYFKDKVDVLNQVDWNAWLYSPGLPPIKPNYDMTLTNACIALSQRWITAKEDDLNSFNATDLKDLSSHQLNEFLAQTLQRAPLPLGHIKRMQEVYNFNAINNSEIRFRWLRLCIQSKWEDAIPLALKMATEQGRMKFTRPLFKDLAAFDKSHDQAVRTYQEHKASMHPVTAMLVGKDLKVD
Method: Compounds of the present invention were tested for LTA4 hydrolase inhibitor activity against recombinant human LTA4 hydrolase (rhLTA4 H). […] Briefly, LTA4 hydrolase encoding DNA was amplified by polymerase chain reaction using a pair of oligonucleotide primers based on the nucleotide sequence from the 5'-end, and the complement of the 3'-end, of the coding region of the LTA4 hydrolase gene, the nucleotide sequence of which gene is known. […] A λgtll human placental cDNA library (Clonetech, Palo Alto, Calif.) provided the nucleic acid template.
One or more predetermined amounts of a compound of the invention were incubated in assay buffer (0.1M potassium phosphate, 5 mg/ml fatty acid free BSA, 10% DMSO, pH 7.4) for 10 minutes at room temperature with 250 ng of recombinant hLT4 H to allow binding, if any, between the enzyme and inhibitor. The stock enzyme solution was 1 mg/ml LTA4 hydrolase, 50 mM Tris, pH 8.0, 150 mM NaCl, 2.5 mM beta-mercaptoethanol, 50% glycerol. […] LTA4 (i.e., substrate) was prepared from the methyl ester of LTA4 (Biomol, Inc., Plymouth Meeting, Pa.) by treating the methyl ester with 30 molar equivalents of LiOH at room temperature for 18 hours. The LTA4 substrate in its free acid form was kept frozen at -80° C. until needed. […] Each reaction was carried out at room temperature for 10 minutes. The reaction was stopped by diluting 25 μl of the reaction mixture with 500 μl of the assay buffer without DMSO. LTB4 was quantified in the diluted sample by a commercially available enzyme-linked immunoassay [Caymen Chemical Co., Ann Arbor, Mich.] using the method recommended in the manufacturer's instructions and compared to the amount of LTB4 produced in a negative control (i.e., essentially identical conditions except without addition of an inhibitor compound). The IC50 was routinely calculated from the data produced.

[2] = test system: LTB4 production in mouse blood; test: Murine Ex Vivo LTB4 Inhibition, calcium ionophore stimulated mouse blood after oral gavage; format: in vivo
Method: Leukotriene A4 hydrolass inhibitor compounds of the present invention were diluted to a predetermined concentration in phosphate buffered saline containing 2% DMSO and 1% Tween 80. The compounds were administered by oral gavage to adult male outbred mice weighing approximately 20-30 gm at a dose of 10 mg/kg body weight. (Compounds given at a dose of 50 mg/kg body weight are designtated in following Table by the symbol, *.) Sixty (60) minutes after administration of an LTA4 inhibitor compound of the invention, blood was collected (into heparin-containing tubes) from the retroorbital sinus. […] The mixture was incubated for 10 minutes at 37° C. in a humidified incubator. The reaction was terminated by centrifugation (833 g, 10 minutes at 4° C.). Supernatants were analyzed for LTB4 and thromboxane by commercially available enzyme-linked immunoassays [Caymen Chemical Co., Ann Arbor, Mich.] in accordance with the manufacturer's instructions. The percent inhibition was determined by comparison to animals treated identically except that the solution admininstered by oral gavage was devoid of inhibitor compound.

[3] = test system: LTB4 production in human blood; test: Inhibition of Calcium Ionophore-Induced LTB4 Production in Human Blood (HWB); format: cell-based; details: Homo sapiens, read-out: Inhibition of Calcium Ionophore-Induced LTB4 Production in Human Blood IC50 HWB
[4] = human whole blood, A23187 20 mcg/ml

SMILES	IC50 [1]	Murine Ex Vivo LTB4 Inhibition % I LTB4 at 1 hour after administration of 10 mg/kg ([2]; oral gavage, 10 mg/kg, 1 hour)	IC50 [3]	Murine Ex Vivo LTB4 Inhibition % I LTB4 at 1 hour after administration of 50 mg/kg (*) ([2]; in vivo, po)	IC50 [3, 4]	Murine Ex Vivo LTB4 Inhibition % I LTB4 at 1 hour after administration of 10 mg/kg ([2]; in vivo, po)
c1ccc(Oc2ccc(OCCN3CCCC3)cc2)cc1 [Example 44, 1-[2-(4-phenoxyphenoxy)ethyl]pyrrolidine]	30 nM	25%				
c1ccc(Cc2ccc(OCCN3CCCC3)cc2)cc1 [Example 45]	26 nM	35%	116 nM			
c1nc(Cc2ccc(OCCN3CCCC3)cc2)cs1 [Example 49]	190 nM	46%				
FC(F)(c1ccccc1)c1ccc(OCCN2CCCC2)cc1 [Example 67]	11 nM	0%				
c1ccc(Cc2ccc(OCCN3CCCC3)nc2)cc1 [Example 112]	7 nM			82%		
Fc1cc(OCCN2CCCC2)ccc1Cc1ccccc1 [Example 116]	53 nM	18%			1090 nM	
c1csc(Cc2ccc(OCCN3CCCC3)cc2)n1 [Example 121]	69 nM	48%				
c1ncc(Cc2ccc(OCCN3CCCC3)cc2)s1 [Example 122]	77 nM	57%				
c1cncc(Cc2ccc(OCCN3CCCC3)cc2)c1 [Example 125]	87 nM	46%				
Clc1cccc(COc2ccc(OCCN3CCCC3)cc2)c1 [Example 206]		0%			1650 nM	
NC(=O)C1CCN(CCOc2ccc(Cc3ccccc3)cc2)CC1 [Example 242]	132 nM	95%			608 nM	
CCOC(=O)C1CCN(CCOc2ccc(Cc3ccccc3)cc2)CC1 [Example 245]		97%			147 nM	
CCOC(=O)CCNCCCCOc1ccc(Cc2ccccc2)cc1 [Example 272]	7 nM	97%			76 nM	
COC(=O)CC1CCN(CCOc2ccc(Cc3ccccc3)cc2)C1 (centres unmarked) [Example 275]	390 nM	75%			146 nM	
CC(=O)N1CCN(CCOc2ccc(Cc3ccccc3)cc2)CC1 [Example 277]	520 nM	42%			546 nM	
COC(=O)C1CC2CCC(C1)N2CCOc1ccc(Cc2ccccc2)cc1 (centres unmarked) [Example 278]	22 nM	95%	247 nM			
COC(=O)C1CC2CCC(C1)N2CC1Cc2cc(Cc3ccccc3)ccc2O1 (centres unmarked) [Example 283]		90%	90 nM			
COC(=O)CC1CC2CC1CN2CCOc1ccc(Cc2ccccc2)cc1 (centres unmarked) [Example 304]	15 nM					80%
COC(=O)CCN(C)CCCOc1ccc(Cc2ccsc2)cc1 [Example 330]		95%			90 nM	

SMILES	IC50 [1]	Murine Ex Vivo LTB4 Inhibition % I LTB4 at 1 hour after administration of 10 mg/kg ([2]; oral gavage, 10 mg/kg, 1 hour)	IC50 [3]	Murine Ex Vivo LTB4 Inhibition % I LTB4 at 1 hour after administration of 50 mg/kg (*) ([2]; in vivo, po)	IC50 [3, 4]	Murine Ex Vivo LTB4 Inhibition % I LTB4 at 1 hour after administration of 10 mg/kg ([2]; in vivo, po)
c1ccc(Cc2ccc(OCCn3cnc4cnccc43)cc2)cc1 [Example 340B]		64%			330 nM	
c1ccc(Cc2ccc(OCCn3cnc4ncncc43)cc2)cc1 [Example 357A]		57%				
c1ccc(Cc2ccc3c(c2)CC(Cn2cnc4cnccc42)O3)cc1 (centres unmarked) [Example 358B]		33%			640 nM	
c1ccc(Cc2ccc3c(c2)CC(Cn2ccc4ncnc-4c2)O3)cc1 (centres unmarked) [Example 358C]		13%			590 nM	
[O-][n+]1ccc2c(c1)ncn2CCOc1ccc(Cc2ccccc2)cc1 [Example 365]		72%				
CCOC(=O)C1CCN(CCOc2ccc(Cc3ccccc3)s2)CC1 [Example 370]		96%			680 nM	
COC(=O)CCN(C)CCCOc1ccc(Cc2ccccc2)s1 [Example 375]		67%			240 nM	
COC[C@@H]1CCCN1CCOc1ccc(Cc2ccccc2)cc1 [Example 400]	60 nM				380 nM	
CC1CCCC(C)N1CCOc1ccc(Cc2ccccc2)cc1 (centres unmarked) [Example 402]		58%				
CCOC(=O)CCN(C)CCCOc1ccc(Cc2ccccc2)cc1 [Example 412]	190 nM				240 nM	
NC(=O)C1CCN(CCOc2ccc(Cc3ccccc3)cc2)C1 (centres unmarked) [Example 425]	16 nM				360 nM	
NC(=O)CC1CCN(CCOc2ccc(Cc3ccccc3)cc2)C1 (centres unmarked) [Example 426]	210 nM				403 nM	
O=C(O)C1CCN(CCOc2ccc(Cc3ccccc3)cc2)CC1 [Example 429]		80%			288 nM	
O=C(O)CCNCCCOc1ccc(Cc2ccccc2)cc1 [Example 431]	140 nM				280 nM	
O=C(O)CCNCCCCOc1ccc(Cc2ccccc2)cc1 [Example 433]	18 nM				49 nM	
c1ccc(Cc2ccc(OCCN3CCC(c4nnn[nH]4)CC3)cc2)cc1 [Example 450]	240 nM	91%				
NC1CCN(CCOc2ccc(Cc3ccccc3)cc2)C1 (centres unmarked) [Example 452]	20 nM				290 nM	
NC(=O)NC1CCN(CCOc2ccc(Cc3ccccc3)cc2)C1 (centres unmarked) [Example 453]	81 nM				350 nM	
NC(=O)NC1CCN(CCOc2ccc(Cc3ccccc3)cc2)CC1 [Example 456]	87 nM				440 nM	
